Assay results published in US4310660A, “Lincomycin compounds” (The Upjohn Company, priority 1980, dated 1982).
Counter-ions that a name gives are not always drawn. Like-named read-outs stand apart in the source and are kept apart here.

Assays:
Streptococcus pyogenes = assay: MIC vs. aerobic bacteria, microplate broth-dilution (BHI); assay type: cell-based; conditions: UC152, UC 152, read-out: Minimal Inhibitory Concentration (MIC)
Protocol: (§1) The Minimal Inhibitory Concentration (MIC's) of both compounds Vs. aerobic bacteria is determined using a standard microplate broth-dilution method. Brain Heart Infusion (BHI-Difco) broth medium is used, and the plates are incubated at 37° C. for 20 hrs.

Klebsiella pneumoniae = assay: as above; assay type: cell-based; conditions: Klebsiella pneumoniae, UC58, UC 58; read-out: Minimal Inhibitory Concentration (MIC)
Protocol: as §1

Escherichia coli = assay: as above; assay type: cell-based; conditions: UC45, UC 45, read-out: Minimal Inhibitory Concentration (MIC)
Protocol: as §1

[1] = test system: Staphylococcus epidermidis; assay: as above; assay type: cell-based
Protocol: as §1

Diplococcus pneumoniae = assay: as above; assay type: cell-based; conditions: Streptococcus pneumoniae, read-out: Minimal Inhibitory Concentration (MIC)
Protocol: as §1

[2] = test system: Salmonella schottmuelleri; assay: as above; assay type: cell-based; conditions: Salmonella, UC126; UC 126; read-out: Minimal Inhibitory Concentration (MIC)
Protocol: as §1

Streptococcus faecalis = assay: as above; assay type: cell-based; conditions: Enterococcus faecalis, UC694, UC 694; read-out: Minimal Inhibitory Concentration (MIC)
Protocol: as §1

Pseudomonas aeruginosa = assay: as above; assay type: cell-based; conditions: UC95, UC 95, read-out: Minimal Inhibitory Concentration (MIC)
Protocol: as §1

Streptococcus viridans = assay: as above; assay type: cell-based
Protocol: as §1

Proteus vulgaris = assay: as above; assay type: cell-based; conditions: Proteus vulgaris, UC93, UC 93; read-out: Minimal Inhibitory Concentration (MIC)
Protocol: as §1

[3] = Acute I.P. toxicity in the mouse (LD50); assay type: in vivo
Text: This value is the resulting mean of two separate and identical LD50 determinations.

Bacteroides fragilis = assay: MIC vs. anaerobic bacteria, agar dilution; assay type: cell-based
Clostridium difficile = assay: MIC vs. anaerobic bacteria, agar dilution; assay type: cell-based; conditions: Clostridioides difficile
[4] = test system: Peptostreptococcus anaerobius; assay: MIC vs. anaerobic bacteria, agar dilution; assay type: cell-based; conditions: UC6321, UC 6321, read-out: Minimal Inhibitory Concentration (MIC)
Propionibacterium acnes = assay: MIC vs. anaerobic bacteria, agar dilution; assay type: cell-based; conditions: Cutibacterium acnes
Peptococcus aerogenes = assay: MIC vs. anaerobic bacteria, agar dilution; assay type: cell-based; conditions: Peptoniphilus asaccharolyticus, UC6319, UC 6319, read-out: Minimal Inhibitory Concentration (MIC)
S. hemolyticus = assay: Mouse Protection Test; assay type: in vivo; conditions: for ED50: 168 h
Text: (§2) Immediately before use, the suspensions were thawed quickly and properly diluted. Infection was via the intrapertioneal route.
(§3) Treatment of the infected groups was begun immediately and continued once per day for 4 days (first 24 hr period=1). Groups of untreated mice served as virulence controls for the culture.
(§4) Seven days after the treatment regimen was begun the surviving animals were sacrificed and the median protective dose of the antibiotic calculated on the basis of mortality rates in the treatment groups. The median protective dose and its 95% confidence interval were calculated according to the method of Spearmen & Karber as programmed on a 360 digital computer.

S. aureus = assay: Mouse Protection Test; assay type: in vivo; conditions: Staphylococcus aureus
Text: as §2, §3, §4

K. pneumoniae = assay: Mouse Protection Test; assay type: in vivo; conditions: Klebsiella pneumoniae, 168 h; route not given; once per day for 4 days; read-out: CD50 (median protective dose)
Text: as §2, §3, §4

Clostridium cadaveris = assay: MIC vs. anaerobic bacteria, agar dilution; assay type: cell-based; conditions: UC6510, UC 6510, read-out: Minimal Inhibitory Concentration (MIC)
Clostridium perfringens = assay: microbe, parasite or virus in culture; assay type: cell-based
Fusobacterium varium = assay: MIC vs. anaerobic bacteria, agar dilution; assay type: cell-based; conditions: UC6052, UC 6052, read-out: Minimal Inhibitory Concentration (MIC)
[5] = test system: Bacteroides thetaiotaomicon; assay: MIC vs. anaerobic bacteria, agar dilution; assay type: cell-based; conditions: UC6512, UC 6512, read-out: Minimal Inhibitory Concentration (MIC)
Peptococcus magnus = assay: MIC vs. anaerobic bacteria, agar dilution; assay type: cell-based; conditions: Finegoldia magna, UC6258, UC 6258, read-out: Minimal Inhibitory Concentration (MIC)
[6] = test system: Fusobacterium necrophorum; assay: MIC vs. anaerobic bacteria, agar dilution; assay type: cell-based; conditions: UC6568, UC 6568, read-out: Minimal Inhibitory Concentration (MIC)
Eubacterium limosum = assay: MIC vs. anaerobic bacteria, agar dilution; assay type: cell-based; conditions: UC6515, UC 6515, read-out: Minimal Inhibitory Concentration (MIC)

In the case of CC[C@@H]1CCN[C@H](C(=O)N[C@@H]([C@H]2O[C@H](SC)[C@H](O)[C@@H](O)[C@H]2O)[C@H](C)Cl)C1 [U-57,930E, 4-Cis-ethyl-1-pipecolic acid amide of 7-Cl-MTL.HCl], the MIC (Streptococcus pyogenes) is reported as ≤ 0.012 µg/mL, the MIC (Klebsiella pneumoniae) is reported as > 50 µg/mL and the MIC (Escherichia coli) is reported as > 50 µg/mL. The MIC ([1]; UC719, UC 719, read-out: Minimal Inhibitory Concentration (MIC)) was 0.2 µg/mL, the MIC ([1]; UC3389, UC 3389, read-out: Minimal Inhibitory Concentration (MIC)) was 0.2 µg/mL and the MIC (Diplococcus pneumoniae; UC41, Diplococcus pneumoniae I, UC 41) was ≤ 0.012 µg/mL. For the same compound, the MIC (Diplococcus pneumoniae; UC3213, Diplococcus pneumoniae II, UC 3213) was ≤ 0.012 µg/mL, the MIC [2] was > 50 µg/mL and the MIC (Streptococcus faecalis) was 6.25 µg/mL. For the same compound, the MIC (Pseudomonas aeruginosa) was > 50 µg/mL, the MIC (Streptococcus viridans; UC153, UC 153, read-out: Minimal Inhibitory Concentration (MIC)) was 0.05 µg/mL and the MIC (Streptococcus viridans; UC871, UC 871, read-out: Minimal Inhibitory Concentration (MIC)) was ≤ 0.012 µg/mL. The MIC (Proteus vulgaris) was > 50 µg/mL, the “LD50 as multiple of the LD50 for clindamycin HCl” value [3] was “approximately 2 times” and the “acute I.P. toxicity relative to clindamycin HCl” value [3] was “approximately one-half”. The LD50 ([3]; in vivo, ip, mean of two determinations) was 592 mg/kg, the MIC (Bacteroides fragilis; UC6428, UC 6428, read-out: Minimal Inhibitory Concentration (MIC)) was 0.25 µg/mL and the MIC (Bacteroides fragilis; UC6513, UC 6513, read-out: Minimal Inhibitory Concentration (MIC)) was 0.12 µg/mL. The MIC (Bacteroides fragilis; UC6862, UC 6862, read-out: Minimal Inhibitory Concentration (MIC)) was 15.6 µg/mL, the MIC (Bacteroides fragilis; UC6864, UC 6864, read-out: Minimal Inhibitory Concentration (MIC)) was 2 µg/mL and the MIC (Clostridium difficile; UC6834, UC 6834, read-out: Minimal Inhibitory Concentration (MIC)) was 3.9 µg/mL. The MIC (Clostridium difficile; UC6857, UC 6857, read-out: Minimal Inhibitory Concentration (MIC)) was 125 µg/mL, the MIC (Clostridium difficile; UC6858, UC 6858, read-out: Minimal Inhibitory Concentration (MIC)) was 3.9 µg/mL and the MIC (Clostridium difficile; UC6860, UC 6860, read-out: Minimal Inhibitory Concentration (MIC)) was 500 µg/mL. It also gave an MIC (Clostridium difficile; UC6861, UC 6861, read-out: Minimal Inhibitory Concentration (MIC)) of 2 µg/mL, an MIC [4] of 0.12 µg/mL and an MIC (Propionibacterium acnes; UC6564, UC 6564, read-out: Minimal Inhibitory Concentration (MIC)) of 0.12 µg/mL. For the same compound, the MIC (Propionibacterium acnes; UC6575, UC 6575, read-out: Minimal Inhibitory Concentration (MIC)) was 0.06 µg/mL, the MIC (Peptococcus aerogenes) was 0.06 µg/mL and the ED50 (S. hemolyticus; oral, once per day for 4 days, 95% confidence interval, read-out: CD50 (median protective dose)) was 2.9 mg/kg. For the same compound, the ED50 (S. hemolyticus; strain C203, oral, read-out: Median Protective Dose (CD50)) was 3.79 mg/kg, the “Ratio (clindamycin / U-57930A CD50)” value (S. hemolyticus; oral) was 4.2 and the ED50 (S. hemolyticus; sc, strain C203, subcutaneous, read-out: Median Protective Dose (CD50)) was 0.38 mg/kg. For the same compound, the ED50 (S. hemolyticus; sc, subcut., once per day for 4 days, 95% confidence interval, two experiments listed, read-out: CD50 (median protective dose)) was 0.25 mg/kg, the ED50 (S. aureus; 168 h, oral, once per day for 4 days, 95% confidence interval, read-out: CD50 (median protective dose)) was 1 to 5 mg/kg and the ED50 (S. aureus; UC76, 168 h, strain UC 76, oral, read-out: Median Protective Dose (CD50)) was 8.12 mg/kg. The ED50 (S. aureus; UC76, sc, 168 h, strain UC 76, subcutaneous, read-out: Median Protective Dose (CD50)) was 1.07 mg/kg, the ED50 (S. aureus; sc, 168 h, read-out: CD50 (median protective dose)) was < 5 mg/kg and the ED50 (K. pneumoniae) was > 320 mg/kg. It also gave an MIC (Clostridium cadaveris) of 0.06 µg/mL, an MIC (Clostridium perfringens; UC247, read-out: Minimal Inhibitory Concentration (MIC)) of 0.12 µg/mL and an MIC (Clostridium perfringens; UC6509, read-out: Minimal Inhibitory Concentration (MIC)) of 0.12 µg/mL. The MIC (Fusobacterium varium) was 3.9 µg/mL, the MIC [5] was 0.5 µg/mL and the MIC (Peptococcus magnus) was 0.06 µg/mL. For the same compound, the MIC [6] was 0.06 µg/mL and the MIC (Eubacterium limosum) was 2 µg/mL.
